Test results as given in paper PMC10648349, “Aromatic Diboronic Acids as Effective KPC/AmpC Inhibitors” (Molecules, 2023).
In brackets after ≈: the same amount, converted by molar mass.

Legend:
[1] = tested on: C. krusei ATCC 6258; test: antifungal activity (disc-diffusion, MIC, MFC); assay type: cell-based, Candida krusei; details: Pichia kudriavzevii, ATCC6258; for zone of inhibition at 0.4 mg/disc: 0.4 mg per disc, 9 mm disc (fluconazole 0.025 mg, 6 mm disc), - no zone, read-out: Diameter of inhibition zone; for MIC: fluconazole by Etest
How it was run: (§1)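 Diboronic acids (DMSO solutions) at 0.4 mg per disc were used for diffusion testing. Dilution endpoints were MIC, MBC and MFC, per CLSI and EUCAST recommendations.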

[2] = tested on: E. coli 77 CMY-2-positive; test: combination disc test CDT-AmpC; assay type: cell-based; details: Escherichia coli; agent 0.1 mg per disc; read-out: Diameter of inhibition zone, CAZ-30 disc with agent
[3] = tested on: K. pneumoniae ATCC 700603 ESBL-positive; test: combination disc test CDT-ESBL; assay type: cell-based; details: Klebsiella pneumoniae, ATCC700603; agent 0.1 mg per disc; read-out: Diameter of inhibition zone, CAZ-30 disc with agent
[4] = MTT-based viability assay; assay type: cell-based; details: human, MRC-5 human fibroblasts, 72 h; for viability at 72 h, 12.5 mg/L / viability at 72 h, 25 mg/L / viability at 72 h, 50 mg/L: read-out: Viability of MRC-5 cells (% of viable cells ± SD)
How it was run: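 Percent viable cells relative to control, measured in triplicate by MTT read-out at 570 nm. Cells: MRC-5 human fibroblasts cultured at 37 °C, 5% CO2 in MEME plus 10% FBS.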

[5] = tested on: K. pneumoniae ATCC BAA 1705 KPC(+); test: screening test of direct antimicrobial activity (STDA), disc-diffusion; assay type: cell-based; details: Klebsiella pneumoniae, BAA1705; 0.3 mg per disc; - no zone; read-out: Diameter of inhibition zone around disc with tested agent
Experimental: (§2) Prior to combination disc tests, screening tests of direct antimicrobial activity (STDA) of the tested agent against β-lactamase-producing strains were performed by the disc-diffusion method. Discs with 0.3 mg, 0.1 mg, and 0.03 mg of each agent were examined. The highest amount of an agent that caused no effect on bacterial growth was used in further experiments.

[6] = tested on: E. coli 77 CMY-2(+); test: as above; assay type: cell-based; details: Escherichia coli, - no zone, read-out: Diameter of inhibition zone around disc with tested agent; for zone of inhibition at 300 µg/disc: 0.3 mg per disc
Experimental: as §2

[7] = tested on: P. aeruginosa MUW 700 AmpC(+); test: as above; assay type: cell-based; details: Pseudomonas aeruginosa; 0.3 mg per disc; - no zone; read-out: Diameter of inhibition zone around disc with tested agent
Experimental: as §2

[8] = tested on: K. pneumoniae ATCC 700603 ESBL(+); test: as above; assay type: cell-based; details: Klebsiella pneumoniae, ATCC700603; 0.3 mg per disc; - no zone; read-out: Diameter of inhibition zone around disc with tested agent
Experimental: as §2

[9] = tested on: C. parapsilosis ATCC 22019; test: antifungal activity (disc-diffusion, MIC, MFC); assay type: cell-based, Candida parapsilosis; details: Lodderomyces parapsilosis, ATCC22019; for zone of inhibition at 0.4 mg/disc: 0.4 mg per disc, 9 mm disc (fluconazole 0.025 mg, 6 mm disc), - no zone, read-out: Diameter of inhibition zone; for MIC: fluconazole by Etest
How it was run: as §1

[10] = tested on: E. coli 77 CMY-2-positive; test: checkerboard microdilution, antibiotic plus tested agent; assay type: cell-based, Escherichia coli
How it was run: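 Read-out is the antibiotic MIC with agent present, plus FICI = combined/alone MIC ratios summed for both partners. Meropenem pairs served for carbapenemase strains and ceftazidime pairs for the AmpC strain. Agent or PBA was tested at 4–16 mg/L.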

SMILES	MIC [1] [µg/mL]	MIC [9] [µg/mL]	zone of inhibition at 0.4 mg/disc [1] [mm]	zone of inhibition at 100 µg/disc [2] [mm]	zone of inhibition at 100 µg/disc [3] [mm]	viability at 72 h, 12.5 mg/L [4] [%]	viability at 72 h, 25 mg/L [4] [%]	viability at 72 h, 50 mg/L [4] [%]	zone of inhibition at 300 µg/disc [5] [mm]	zone of inhibition at 300 µg/disc [6] [mm]	zone of inhibition at 300 µg/disc [7] [mm]	zone of inhibition at 300 µg/disc [8] [mm]	zone of inhibition at 0.4 mg/disc [9] [mm]	Average FICI with ceftazidime [10]	The lowest FICI with ceftazidime [10]	viability at 72 h ([4]; 12.5, 25 and 50 mg/L) [%]	zone of inhibition at 100 µg/disc ([6]; 0.1 mg per disc) [mm]
OB(O)c1cc(F)c(B(O)O)c(F)c1F [1f]	100 (≈ 455 µM)	100 (≈ 455 µM)	19	21	15	97.4 ± 2.2	89.9 ± 1.9	78.1 ± 0.9	16	15	12	18	20	0.24	0.21	–	–
OB(O)c1cc(F)c(F)c(B(O)O)c1 [2d]	400 (≈ 1980 µM)	> 400	–	21	13	107 ± 7.6	88 ± 4.3	75.2 ± 9.4	11	15	12	11	–	0.19	0.14	–	–
O=Cc1cc(F)ccc1B(O)O [7b]	25 (≈ 149 µM)	12.5 (≈ 74.4 µM)	28	–	–	48.9 ± 3.8	6.4 ± 1.4	0.9 ± 0.7	14	14	–	13	17	–	–	0 to 56.4	12

Now from value to molecule, other results behind:

MIC [1] [µg/mL]	MIC [9] [µg/mL]	SMILES	zone of inhibition at 0.4 mg/disc [1] [mm]	zone of inhibition at 100 µg/disc [2] [mm]	zone of inhibition at 100 µg/disc [3] [mm]	viability at 72 h, 12.5 mg/L [4] [%]	viability at 72 h, 25 mg/L [4] [%]	viability at 72 h, 50 mg/L [4] [%]	zone of inhibition at 300 µg/disc [5] [mm]	zone of inhibition at 300 µg/disc [6] [mm]	zone of inhibition at 300 µg/disc [7] [mm]	zone of inhibition at 300 µg/disc [8] [mm]	zone of inhibition at 0.4 mg/disc [9] [mm]	Average FICI with ceftazidime [10]	The lowest FICI with ceftazidime [10]	viability at 72 h ([4]; 12.5, 25 and 50 mg/L) [%]	zone of inhibition at 100 µg/disc ([6]; 0.1 mg per disc) [mm]
50 (≈ 155 µM)	50 (≈ 155 µM)	OB(O)c1cc(Br)c(B(O)O)cc1Br [1i]	22	16	14	122	114 ± 4.8	101.4 ± 0.9	15	16	12	13	24	–	–	–	–
> 400	> 400	OB(O)c1cc(B(O)O)c(F)cc1F [2c]	–	19	13	89.1 ± 0.5	83.6 ± 2.7	63.8 ± 2.5	14	15	11	13	–	0.21	0.17	–	–
